Experimental data: US20050228050A1, “Novel stable crystals of substituted phenylpropionic acid derivative and process for producing the same” (priority 2001, published 2005)

Legend:
[1] = Differential thermal analysis (DTA) and thermogravimetry (TG) of crystals; type: physicochemical
Protocol: Differential Thermal Analysis (DTA) and Thermogravimetry (TG)
The thermal stability of crystals was compared by using apparatus for thermal analysis (SII: TG/DTA6200). […] With the new type crystals, the endothermic phenomenon due to transition was seen from 131.4° C. and the endothermic peak due to melting was shown at 132.0° C.

[2] = Hygroscopicity of crystals; type: physicochemical; settings: stated without described test

For `CC[C@@H](Cc1ccc(OC)c(C(=O)NCc2ccc(Oc3ccc(F)cc3)cc2)c1)C(=O)O` [new type crystals, (S)-2-[[3-[N-[4-[(4-fluorophenoxy)phenyl]methyl]-carbamoyl]-4-methoxyphenyl]methyl]butanoic acid], the “weight change in thermogravimetry” value ([1]; TG/DTA6200 thermal analysis, FIG. 3 and 4) was “no weight change”, the “thermal stability of crystals” value ([1]; conclusion from DTA/TG comparison of new and old type crystals) was “thermally stable” and the hygroscopicity [2] was “no hygroscopicity”.
